Test results taken from patent US12390537B2, “Compositions of polymeric microdevices and methods of use thereof in cancer immunotherapy” (Massachusetts Institute of Technology, priority 2020, dated 2025).

Assays:
Assay type in all cases: in vivo, mice
B16F10 melanoma tumors = test: Treatment of B16F10 melanoma tumors; details: single injection of high-dose cGAMP-S (40 μg) and EP
Experimental: 2×10^5 4 T1 or 2×10^5 B16F10 cells were subcutaneously injected to the right rear flank of BALB/c mice or C57BL/6 female mice respectively. For orthotopic 4T1 model, 2×10^5 4 T1 cells were injected into the mammary fat pad. Seven days after tumor injection, B16F10 tumor-bearing mice were divided into 6 experimental groups (n=8 for each group): untreated, 1×empty microdevices(EP), 1×cGAMP-S plus EPs, 1×collagen gel, 4×cGAMP-S, and 1×cGAMP-S plus cGAMP-MPs, respectively (FIG. 3D). For the 4×cGAMP-S group, mice were intratumorally administered with 10 μg of cGAMP in 50 μL MC solution (cGAMP-S) at days 0, 4, 8, and 11 to replicate the four doses of soluble cGAMP. The overall does of cGAMP were 40 μg per mouse throughout the treatment period. […] Tumor size was measured every other day starting at day 7 post tumor inoculation with a digital caliper. Tumor volume was calculated using the following formula: length (mm)×width^2 (mm)×0.5. […]
Mice bearing B16F10 tumors were treated with the following 4 experimental groups (n=8): untreated, 1×EPs, 3×cGAMP-S, and 1×cGAMP-S plus cGAMP-MPs, respectively (FIG. 4A). […] The protein content in the supernatant was quantified using a bicinchoninic acid protein assay kit (Thermo Fisher Scientific, MA, USA). […]

CXCL10 mRNA = test: qPCR of interferon-stimulated genes in B16F10 tumors; details: tumors at day 16; cGAMP-MPs single injection, cGAMP-S three injections
Experimental: (§1) Mice bearing B16F10 tumors were treated with the following 4 experimental groups (n=8): untreated, 1×EPs, 3×cGAMP-S, and 1×cGAMP-S plus cGAMP-MPs, respectively (FIG. 4A). Tumors were collected at day 16 post tumor inoculation and cut into 50-100 mg small pieces in a 1.5 mL microcentrifuge tube. The tumors were lysed in radioimmunoprecipitation assay (RIPA) buffer (Sigma-Aldrich), homogenized, and centrifuged at 20130 rcf for 10 min. The protein content in the supernatant was quantified using a bicinchoninic acid protein assay kit (Thermo Fisher Scientific, MA, USA). Equal amounts of proteins (20 μg) were separated on a 4 to 15% gradient SDS-polyacrylamide gel (Bio-Rad, Hercules, CA) and electro-transferred to nitrocellulose membrane. The membranes were then blocked with 5% milk in tris-buffered saline supplemented with 0.05% Tween 20 and further incubated with GAPDH monoclonal antibody (Invitrogen, CA, cat. no. MA5-27912), phospho-TBK1/NAK (Ser172) (D52C2) Rabbit mAb (Cell Signaling Technology, cat. no. 5483S), or phospho-IRF-3 (S396) Rabbit mAb (Cell Signaling Technology, cat. no. 4947S) at 4° C. overnight. […]
(§2) For q-PCR experiments, total RNAs were extracted from tumors by RNeasy Kit (Qiagen, Inc.) according to manufacturer's protocol. […] Samples were analyzed in triplicates.

IRF7 mRNA = test: as above; details: tumors at day 16; cGAMP-MPs single injection, cGAMP-S three injections
Experimental: as §1, §2

[1] = tested on: phosphorylated-IRF3 (p-IRF3); test: Western blot of B16F10 tumors; details: tumors at day 16; cGAMP-MPs single injection, cGAMP-S three injections
Experimental: (§3) Mice bearing B16F10 tumors were treated with the following 4 experimental groups (n=8): untreated, 1×EPs, 3×cGAMP-S, and 1×cGAMP-S plus cGAMP-MPs, respectively (FIG. 4A). Tumors were collected at day 16 post tumor inoculation and cut into 50-100 mg small pieces in a 1.5 mL microcentrifuge tube. The tumors were lysed in radioimmunoprecipitation assay (RIPA) buffer (Sigma-Aldrich), homogenized, and centrifuged at 20130 rcf for 10 min. The protein content in the supernatant was quantified using a bicinchoninic acid protein assay kit (Thermo Fisher Scientific, MA, USA). Equal amounts of proteins (20 μg) were separated on a 4 to 15% gradient SDS-polyacrylamide gel (Bio-Rad, Hercules, CA) and electro-transferred to nitrocellulose membrane. The membranes were then blocked with 5% milk in tris-buffered saline supplemented with 0.05% Tween 20 and further incubated with GAPDH monoclonal antibody (Invitrogen, CA, cat. no. MA5-27912), phospho-TBK1/NAK (Ser172) (D52C2) Rabbit mAb (Cell Signaling Technology, cat. no. 5483S), or phospho-IRF-3 (S396) Rabbit mAb (Cell Signaling Technology, cat. no. 4947S) at 4° C. overnight. The membranes were then incubated with goat anti-rabbit IgG (H+L) Secondary Antibody, HRP (Invitrogen, cat. no. TG266717) for 1 h at room temperature. Protein bands were visualized by chemiluminescence using the ECL Western Blotting Substrate (Thermo Fisher Scientific, MA).

[2] = tested on: phosphorylated-TBK1 (p-TBK1); test: Western blot of B16F10 tumors; details: tumors at day 16; cGAMP-MPs single injection, cGAMP-S three injections
Experimental: as §3

[3] = tested on: apoptotic cells in B16F10 tumors; test: TUNEL staining of tumor sections; details: cGAMP-MPs single injection, cGAMP-S three injections
Experimental: Tumor sections (5 μm) were fixed with 4% paraformaldehyde, blocked with 3% bovine serum albumin, and permeabilized with 0.1% Triton X-100 in PBS. The tumor sections were then incubated with anti-CD8 alpha antibody (1:200, Abcam, cat. no. ab217344) at 4° C. overnight and goat anti-rabbit IgG H&L (Alexa Fluor® 488) (1:1000, Abcam, cat. no. ab150077) secondary antibody at room temperature for 1 h. Apoptotic tumor cells were stained using a in situ cell death detection kit (Roche) according to the manufacturer's instructions. Images were acquired on a Nikon A1R Ultra-Fast Spectral Scanning Confocal Microscope (Shinagawa, Tokyo).

`Nc1nc2c(ncn2[C@@H]2O[C@@H]3COP(=O)(O)O[C@H]4[C@@H](O)[C@H](n5cnc6c(N)ncnc65)O[C@@H]4COP(=O)(O)O[C@H]3[C@H]2O)c(=O)[nH]1` [cGAMP-S, 3′3′-cGAMP] was tested, and the tumor growth (B16F10 melanoma tumors) was “exhibited an antitumor effect at early time points but failed to achieve sustained tumor inhibition”, the survival time (B16F10 melanoma tumors; untreated 21 days) was 25 days and the “CXCL10 mRNA level, fold over untreated” value (CXCL10 mRNA) was 7.2 fold. For the same compound, the “IRF7 mRNA level, fold over untreated” value (IRF7 mRNA) was 66.5 fold, the “expression of p-IRF3” value [1] was “high expression levels” and the “expression of p-TBK1” value [2] was “high expression levels”. For the same compound, the “apoptotic cells (TUNEL)” value [3] was “greater abundance of apoptotic cells”.
